In patent US20240199555A1, “APPLICATIONS OF BIASED LIGANDS OF THE SEROTONIN 5-HT7 RECEPTOR FOR THE TREATMENT OF PAIN, MULTIPLE SCLEROSIS AND THE CONTROL OF THERMOREGULATION” (Centre National de la Recherche Scientifique, priority 2021, published 2024):
Read-outs that look alike come from different tables or passages of the source.

Assays:
[1] = molecular target: human 5-HT2Cedited receptor (Homo sapiens, UniProt P28335); test: Radioligand binding competition, 5-HT2Cedited; conditions: selectivity panel
human 5-HT2Cedited receptor, sequence (P28335 33-458 limits assumed): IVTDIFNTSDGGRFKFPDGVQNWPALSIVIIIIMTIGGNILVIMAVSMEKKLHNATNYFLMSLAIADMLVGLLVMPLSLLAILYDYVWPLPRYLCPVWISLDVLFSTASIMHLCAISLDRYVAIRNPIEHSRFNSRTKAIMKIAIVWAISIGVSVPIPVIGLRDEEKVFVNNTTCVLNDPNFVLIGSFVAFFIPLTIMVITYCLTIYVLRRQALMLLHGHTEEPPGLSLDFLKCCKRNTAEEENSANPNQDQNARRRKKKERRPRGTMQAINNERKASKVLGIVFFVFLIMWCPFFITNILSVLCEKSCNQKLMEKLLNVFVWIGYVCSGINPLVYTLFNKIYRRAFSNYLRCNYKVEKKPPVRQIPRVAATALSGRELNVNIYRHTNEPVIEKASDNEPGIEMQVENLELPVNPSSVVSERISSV
Procedure: FIG. 14: Testing of 8 molecules for radioligand binding competition activity on recombinant human 5-HT1A, 5-HT2A, 5-HT2Cedited, 5-HT6, 5-HT7 and D2(long) receptors using filtration binding assays.
Radioligand Binding experiments were conducted with Epics Therapeutics membrane preparations. Receptor accession numbers, cellular background and reference compounds are shown in this table.
The new compounds have been tested by radioligand binding competition activity at the human 5-HT1A (FAST-0500B), 5-HT2A (FAST-0505B), 5-HT2Cedited (FAST-0507B), 5-HT6 (FAST-0509B), 5-HT7a (FAST-05111B) and D2(long) (FAST-0101B) receptors at seven (7) concentrations, in duplicate. […] Reference values thus obtained for the test were compared to historical values obtained from the same receptor and used to validate the experimental session. For replicate determinations, the maximum variability tolerated in the test was of +/−20% around the average of the replicates.
Dose-response data from test compounds were analyzed with XLfit (IDBS) software using nonlinear regression applied to a sigmoidal dose-response model and the following equation: • XL Fit fit Model 203: 4 Parameter Logistic Model • A: Bottom • B: TOP • C: LogEC50 • D: Hill

[2] = Pharmacokinetic study in plasma and brain; type: in vivo, C57BL/6 mice; conditions: 5 mg/kg, subcutaneous
Procedure: FIG. 20: Pharmacokinetic study of E55888 and Serodolin. Concentration-time profile of E55888 (reference agonist) and Serodolin in plasma (A) and brain (B) following subcutaneous injection of a unique dose 5 mg/kg of each compound in C57BL/6 mice. Data represent the mean concentration±SEM of n=4 each time point.
The pharmacokinetic study was undertaken to evaluate and compare the quantity of Serodolin and E55888 in plasma and brain samples from C57BL/6 mice (Janvier, Le Genest France) at several time points. Seven weeks old C57BL/6 mice (n=4 animals per group) received by subcutaneous injection a unique dose (5 mg/kg) of Serodolin or E55888 (U103013S, Achemblock). Control group received vehicle (solution of 20% DMSO and 5% Tween 80 diluted in NaCl). […] Blank vehicle mouse brains homogenates and plasma were used to established standard curves of Serodolin or E55888. […] Study samples, brains homogenates and plasma, were prepared for protein precipitation by adding 85 μL of acetonitrile+5-CT to 20 μL of samples. LC-HRMS analysis for PK studies were performed on a maXis Q-TOF mass spectrometer (Bruker, Bremen, Germany) coupled to an U3000 RSLC UHPLC system (Dionex, Germering, Germany). Separation was obtained using an Acquity UPLC BEH C18 column (2.1×50 mm; 1.7 μm) (Waters, Saint-Quentin-en-Yvelines, France) thermostated at 40° C. with a gradient of water (solvent A) and acetonitrile (solvent B), both acidified with 0.1% formic acid at 500 μL/min. […] The samples were randomized prior analysis; 1.25 μL were injected for plasma and 8 μL for brains. […] Area were integrated from extracted ion chromatograms (EIC) of [M+H]+ ions using QuantAnalysis 4.4 software (Bruker) with a tolerance of ±0.005 u.
The pharmacokinetics profile of both compounds were evaluated. The inventors used liquid chromatography tandem mass spectrometry (UPLC-MS/MS) method to perform PK study and measure Serodolin vs E55888 levels in vivo.

[3] = molecular target: h5-HT7R (Homo sapiens (Human), UniProt P34969); test: cAMP accumulation (LANCE cAMP detection kit) in HEK-293 cells stably expressing h5-HT7R; type: cell-based
h5-HT7R, sequence (P34969 1-432): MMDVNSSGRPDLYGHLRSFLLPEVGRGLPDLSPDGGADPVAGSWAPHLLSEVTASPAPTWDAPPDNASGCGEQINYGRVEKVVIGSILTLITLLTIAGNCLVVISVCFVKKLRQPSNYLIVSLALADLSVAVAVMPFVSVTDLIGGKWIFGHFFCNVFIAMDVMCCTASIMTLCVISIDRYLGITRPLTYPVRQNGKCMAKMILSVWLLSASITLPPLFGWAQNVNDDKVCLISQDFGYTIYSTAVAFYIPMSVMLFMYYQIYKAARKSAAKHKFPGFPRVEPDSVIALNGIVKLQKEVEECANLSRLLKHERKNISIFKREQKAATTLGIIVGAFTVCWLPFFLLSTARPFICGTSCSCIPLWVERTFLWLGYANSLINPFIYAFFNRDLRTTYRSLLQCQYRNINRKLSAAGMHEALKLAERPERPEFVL
Procedure: (B) HEK-293 cells stably expressing h5-HT7R were stimulated with 10 nM of 5-CT and increasing concentrations of products for one hour. After cell lysis, cAMP production was quantified by a LANCE cAMP detection kit (Perkin Elmer). […] Data points represent the means±SEM from three independent experiments performed in triplicate. The EC50 and IC50 for each drug was determined using GraphPad Prism software.
cAMP accumulation was measured with a LANCE™ cAMP detection kit (Perkin-Elmer Life Sciences, Boston, MA, USA). 12 h before experiment cells were starved. Forty-eight h after transfection, cells were harvested in Hank's balanced salt solution (HBSS) containing 5 mM HEPES, 1 mM isobutylmethylxanthine (IBMX) and 0.1% BSA, PH 7.4. After centrifugation (1000×g, 5 min), cells were resuspended in the same buffer (2×10^6 per ml). The ALEXA™ fluor 647 anti-cAMP antibody solution (1 μl) was added to the cell suspension (100 μl) and 5 μl aliquots of the mixture were dispensed in white 384-well microtiter plates (Optiplate, Perkin Elmer). The cells were then stimulated with different drugs. After 1 h incubation at room temperature in the dark, lysis buffer (0.35% Triton X-100, 10 mM CaCl2, 50 mM HEPES) containing LANCE EU-W8044 labeled streptavidin and biotinylated-cAMP was added to the cells (10 μL per well). After 2 h incubation at room temperature in the dark, the plates were read on a VictorV™ microplate reader (Perkin-Elmer Life Sciences). Concentration/response curves were analyzed using Prism 4 software.
HEK-293 fibroblast stably expressing 5-HT7 receptor were used to compare the effect of different 5-HT7R ligands on the classical Gαs-mediated activation of AC pathway. It was decided to evaluate the lead compounds from two series of ligands, Serodolin and MOA-51 (FIG. 1A).

Compound: O=c1[nH]c2ccccc2n1CN1CCN(c2ccc(F)cc2)CC1 [Serodolin]
- IC50 ([1]; read-out: RLB 5-HT2Cedited IC50): 1110 nM
- Ki ([1]; read-out: RLB 5-HT2Cedited Ki): 182 nM
- passage of the brain blood barrier [2]: ability to pass the brain blood barrier
- time of maximum of detection ([2]; both in plasma and brain): 15 to 30 min
- maximum of detection in brain ([2]; brain): 0.4 ± 0.8 µg/mL
- maximum of detection in plasma ([2]; plasma): 2.9 ± 0.8 µg/mL
- time after which eliminated / undetectable ([2]; plasma and brain): 240 min
- IC50 ([3]; 10 nM of 5-CT, one hour, read-out: IC50, decrease of the 5-CT induced cAMP accumulation (antagonist)): 5 ± 2 nM
- inhibition of cAMP production when tested alone (inverse agonist effect) ([3]; tested alone): around 75%
- IC50 ([3]; tested alone, read-out: IC50, inverse agonist effect on cAMP response): 14 nM
